Columns and labels:
Format in all cases: physicochemical
[1] = PTR-MS real-time headspace release, watermelon flavor model in water (Example 1); design: Sample A (PG) Mean / Sample B (1,3-propanediol) Mean: unit not given here; details: for Sample B (1,3-propanediol) Mean / Sample A (PG) Mean: PTR-MS headspace, diluted in water, 90 minutes equilibration, mean of three; for Sample B (1,3-propanediol) Mean: watermelon flavor concentrate in 1,3-propanediol; for Sample A (PG) Mean: watermelon flavor concentrate in propylene glycol; for Percent Release Difference: Sample B (1,3-propanediol) relative to Sample A (PG)
Description: The impact of 1,3-propanediol on the release of flavor compounds can be analyzed by Proton Transfer Reaction Mass Spectrometry (PTR-MS; model TOF-8000 from Ionicon Analytik Inc.), where real-time headspace release of volatiles is measured. A sampling apparatus is needed in conjunction with the PTR-MS inlet to prevent variations caused by headspace kinetics. By one exemplary approach, the sampling apparatus includes a 4 ounce sample vessel equipped with a 2-hole lid which may be sealed by an adhesive film to allow equilibration. […]. The holes are equal sized (˜2 mm diameter) and match the outer diameter of the PTR-MS inlet line. The flow of the dilution gas into the vessel is regulated by the vacuum and proportional valve of the PTR-MS inlet system. The sample vessel has a base diameter of 47 mm and is 45 mm high, of which 8 mm of height is occupied by the sample in the vessel in these experiments. The 2 holes in the lid are equidistant from the edge of the vessel (˜20 mm) and about 30 mm from each other. The PTR-MS inlet is braced by clamps in a fixed position vertically above the laboratory bench (˜55 mm) and a silicone rubber depth gauge is affixed to the PTR-MS inlet tubing and set at 18 mm. The PTR-MS inlet is thus consistently oriented in a vertical position 18 mm below the inside lid of the vessel and 19 mm above the sample in the vessel. The sample vessel is then held in place during sampling according to the depth gauge on the inlet line and the vessel is subsequently supported on the bench by a 10 mm plastic spacer.
15 grams of the sample to be tested (e.g., food or beverage product containing 1,3-propanediol) are added to the vessel. The vessel is sealed and allowed to equilibrate at room temperature (˜22° C.) for 90 minutes. At the time of sampling, the seal is removed from both the sampling hole and the dilution gas hole in the lid and the vessel is immediately affixed to the PTR-MS inlet via the sampling hole. The real-time released flavor is measured from the headspace of the sample vessel for two minutes (according to the conditions listed in Table 1 below). A comparative sample is prepared that is otherwise identical to the test sample but contains propylene glycol or water instead of 1,3-propanediol. The comparative sample is then analyzed in triplicate by PTR-MS using the above-described procedure. The data can be analyzed using PTR-MS Viewer, Version 3.0.0.101 (Ionicon Analytik G.m.b.H). The point of maximum intensity for each compound of interest can be determined and recorded according to the PTR-MS Viewer software. The maximum intensity in counts over the timescale for each compound of interest can be used for data analysis as it reflects the static equilibrium headspace concentration in the system at the moment of seal removal. Due to the necessity of a dilution gas, the volatile concentration decreases over time as the compounds of interest re-equilibrate to a state of dynamic equilibrium in the headspace.
[…]. Sample A was prepared with 20 grams watermelon flavor concentrate and 80 grams propylene glycol. Sample B was prepared with 20 grams watermelon flavor concentrate and 80 grams 1,3-propanediol. Each of the samples was further diluted by adding 0.08 grams of each diluted concentrate to 99.92 grams water to provide a flavor water solution.
The diluted samples were analyzed by Proton Transfer Reaction Mass Spectrometry (PTR-MS; model TOF-8000 from Ionicon Analytik Inc.) for real-time headspace release volatiles measurement. Samples were analyzed in triplicate. […]. […].

[2] = PTR-MS headspace release with various non-aqueous liquids (diols) at 0.05:100 (Example 3); details: ratio 0.05:100; for PTR-MS headspace release in 1,3-butanediol: non-aqueous liquid 1,3-butanediol; for PTR-MS headspace release in 1,3-butanediol / PTR-MS headspace release in 1,3-propanediol / PTR-MS headspace release in 1,4-butanediol / PTR-MS headspace release in 1,7-heptanediol / PTR-MS headspace release in Propylene glycol: diluted in water; for PTR-MS headspace release in 1,3-propanediol: non-aqueous liquid 1,3-propanediol; for PTR-MS headspace release in 1,4-butanediol: non-aqueous liquid 1,4-butanediol; for PTR-MS headspace release in 1,7-heptanediol: non-aqueous liquid 1,7-heptanediol; for PTR-MS headspace release in Propylene glycol: non-aqueous liquid propylene glycol
Description: […]. The flavoring was then diluted in water for analysis. The final concentration of each compound was held constant at 8 ppm except furfuryl mercaptan was included at 1.6 ppm to maintain a constant flavor level in the resulting beverage while the non-aqueous liquid varied but the ratio of each compound to non-aqueous liquid was held constant at 0.05:100. A variety of non-aqueous liquids were evaluated, including 1,4-butandiol; 1,7-heptandiol; 1,3-butandiol, propylene glycol, and 1,3-propanediol.
Samples were analyzed by PTR-MS as described in Example 1.
Percent suppression was calculated by the following formula: (I1-3-diol−Ialternate diol)/Ialternate diol×100.

[3] = PTR-MS headspace release at various flavor compound to 1,3-propanediol or PG ratios (Example 2); details: for Percent Suppression by 1,3-propanediol: (IZ−IPG)/IPG×100; for release suppressed in the presence of 1,3-propanediol: 10% cut-off for significant difference, relative to PG; for effect of 1,3-propanediol on release: flavor/1,3-propanediol ratio of 0.05:100
Description: The compounds listed below in Table 3 were added together to provide a liquid flavoring to analyze the role, if any, of the amount of 1,3-propanediol on flavor release. […] The amount of each flavor compound in the beverage was held constant at 8 ppm except furfuryl mercaptan was included at 1.6 ppm while the amount of propylene glycol or 1,3-propanediol varied.
The percent suppression was calculated using the following formula: (IZ−IPG)/IPG×100, where I is peak height, “Z” is 1,3-propanediol and “PG” is propylene glycol.

[4] = PTR-MS headspace release in neat solvent, solvent/solvent experiment (Example 5); design: key to Release Differences: “Z” indicates that 1,3-propanediol had higher equilibrium maximum (meaning more of the flavor was released in 1,3-propanediol); “P” indicates that propylene glycol had higher equilibrium maximum; “-” indicates no statistical difference (95% significance) between the two samples; details: 1.5 hrs equilibration; for Release Differences: 1,3-propanediol versus propylene glycol as sole solvent, 95% significance
Description: […]. Then the head space was analyzed as described above.
0.86 grams of the concentrate was added to 100 grams of either propylene glycol or 1,3-propanediol to provide a 1,3-propanediol diluted concentrate or propylene glycol diluted concentrate. The diluted concentrates were then further diluted as outlined in Table 10 below.
A 15 gram sample was weighed into a 4 oz vessel and analyzed at 1.5 hrs. of equilibration time as described in the method of Example 4.

[5] = ratio 0.005:100, negative = suppressed vs PG

Row | SMILES | Sample B (1,3-propanediol) Mean [1] | Sample A (PG) Mean [1] | Percent Release Difference [1] | PTR-MS headspace release in 1,3-butanediol [2] | PTR-MS headspace release in 1,3-propanediol [2] | PTR-MS headspace release in 1,4-butanediol [2] | PTR-MS headspace release in 1,7-heptanediol [2] | PTR-MS headspace release in Propylene glycol [2] | further results
1 | CC(C=O)Cc1ccc(C(C)C)cc1 (stereo not shown) [Cyclamen aldehyde] | 0.36 | 0.40 | −10.0% |  |  |  |  |  | 
2 | CCc1occc(=O)c1O [Ethyl maltol] | 1.25 | 1.25 | 0.0% |  |  |  |  |  | 
3 | OCCCCCCCO [1,7-heptandiol, reference compound] |  |  |  |  |  |  |  |  | flavor release with the non-aqueous liquid relative to comparative diol [2]: faster release than propylene glycol
4 | CCOC(C)=O [Ethyl acetate] | 1410 | 1797 | −21.5% |  |  |  |  |  | 
5 | O=CCc1ccccc1 [Phenyl acetaldehyde] | 0.78 | 0.80 | −2.5% |  |  |  |  |  | 
6 | CCCCOC(=O)CCC [Butyl butyrate] |  |  |  | 27.9 | 13.57 | 49.4 | 46.4 | 10.50 | Percent Suppression by 1,3-propanediol [3, 5]: −3.3%; Percent Suppression by 1,3-propanediol ([3]; ratio 0.05:100): 29.2%; Percent Suppression by 1,3-propanediol ([3]; ratio 5:100): −20.5%; Percent Suppression by 1,3-propanediol ([3]; ratio 15:100): −8.2%; Percent suppression by 1,3-butanediol relative to 1,4-butanediol [2]: −77.2%; Release Differences [4]: Z
7 | CCO [Ethanol] | 24.50 | 22.17 | 10.5% | 20.7 | 18.60 | 27.5 | 24.5 | 28.52 | release suppressed in the presence of 1,3-propanediol [3]: suppressed; effect of 1,3-propanediol on release [3]: significant suppression effect; Percent Suppression by 1,3-propanediol [3, 5]: 11.9%; Percent Suppression by 1,3-propanediol ([3]; ratio 0.05:100): −34.8%; Percent Suppression by 1,3-propanediol ([3]; ratio 5:100): −12.1%; Percent Suppression by 1,3-propanediol ([3]; ratio 15:100): −0.9%
8 | C/C=C\C(=O)C1C(C)=CCCC1(C)C (stereo not drawn) [Alpha damascone] | 0.57 | 0.82 | −30.6% |  |  |  |  |  | 
9 | CCC(C)COC(C)=O (stereo not shown) [2-methylbutyl acetate] | 4.27 | 5.30 | −19.5% |  |  |  |  |  | 
10 | OCCCO [1,3-propanediol] |  |  |  |  |  |  |  |  | flavor retention compared to use of propylene glycol ([1]; watermelon flavor model, Table 2): generally resulted in increased flavor retention
11 | CCCCCCCCCC(=O)O [Decanoic acid] |  |  |  | 0.6 | 0.20 | 1.4 | 1.0 | 0.25 | effect of 1,3-propanediol on release [3]: minimal effect
12 | CCCC(=O)O [Butyric acid] |  |  |  | 91.7 | 30.25 | 143.8 | 140.0 | 28.00 | effect of 1,3-propanediol on release [3]: minimal effect; Percent Suppression by 1,3-propanediol [3, 5]: 7.5%; Percent Suppression by 1,3-propanediol ([3]; ratio 0.05:100): 8.0%; Percent Suppression by 1,3-propanediol ([3]; ratio 5:100): −18.4%; Percent Suppression by 1,3-propanediol ([3]; ratio 15:100): −6.0%; Percent suppression by 1,3-butanediol relative to 1,4-butanediol [2]: −56.8%

The next lines start with results.

Row | Sample B (1,3-propanediol) Mean [1] | Sample A (PG) Mean [1] | Percent Release Difference [1] | PTR-MS headspace release in 1,3-butanediol [2] | PTR-MS headspace release in 1,3-propanediol [2] | PTR-MS headspace release in 1,4-butanediol [2] | PTR-MS headspace release in 1,7-heptanediol [2] | PTR-MS headspace release in Propylene glycol [2] | SMILES | further results
13 | 0.05 | 0.05 | 3.4% |  |  |  |  |  | COc1cc(C=O)ccc1O [Vanillin] | 
14 | 1.32 | 0.95 | 38.8% |  |  |  |  |  | CCCCCCC(C=O)=Cc1ccccc1 [Hexyl cinnamic aldehyde] | 
15 | 0.04 | 0.07 | −48.1% |  |  |  |  |  | CC(=O)CCc1ccc(O)cc1 [Raspberry ketone] | 
16 | 0.86 | 1.06 | −18.3% |  |  |  |  |  | CCC/C=C/C(=O)O [Trans-2-hexenoic acid] | 
17 |  |  |  | 40.9 | 12.35 | 62.5 | 63.5 | 12.51 | CC(C)CC=O [Isovaleraldehyde] | Percent Suppression by 1,3-propanediol [3, 5]: 3.7%; Percent Suppression by 1,3-propanediol ([3]; ratio 0.05:100): −1.3%; Percent Suppression by 1,3-propanediol ([3]; ratio 5:100): −22.2%; Percent Suppression by 1,3-propanediol ([3]; ratio 15:100): −2.6%; Percent suppression by 1,3-butanediol relative to 1,4-butanediol [2]: −53.0%
18 |  |  |  | 0.3 | 0.20 | 0.5 | 0.3 | 0.37 | CCCCCCO [Hexanol] | release suppressed in the presence of 1,3-propanediol [3]: suppressed; Percent Suppression by 1,3-propanediol [3, 5]: −3.6%; Percent Suppression by 1,3-propanediol ([3]; ratio 0.05:100): −45.9%; Percent Suppression by 1,3-propanediol ([3]; ratio 5:100): −9.8%; Percent Suppression by 1,3-propanediol ([3]; ratio 15:100): −20.0%; Percent suppression by 1,3-butanediol relative to 1,4-butanediol [2]: −50.0%; Release Differences [4]: Z; release in 1,3-propanediol versus propylene glycol, solvent/solvent [4]: released faster in 1,3-propanediol
